From article PMC12649225, “Machine Learning-Identified Potent Antimicrobial Peptides Against Multidrug-Resistant Bacteria and Skin Infections” (Antibiotics, 2025)
In brackets after ≈: the same amount, converted by molar mass. Read-outs that look alike come from different tables or passages of the source. No end group written: not given here.

Key:
A. baumannii RUH875 [1] = assay type: cell-based
Method: (§1) The bacterial strains used in this study included S. aureus JAR060131 [54] and the MDR ESKAPE pathogens Enterococcus faecium LUH15122, S. aureus LUH14616, Klebsiella pneumoniae LUH15104, A. baumannii RUH875 [55], Pseudomonas aeruginosa LUH15103, Enterobacter cloacae LUH15114, and the colistin-resistant Escherichia coli LUH15117. Before each experiment, bacteria from frozen stocks were cultured at 37 °C for 18–24 h on sheep blood agar plates (BioMérieux, Marcy-l’Étoile, France). All strains were then cultured from colonies either in tryptic soy broth (TSB; Oxoid, Basingstoke, UK) for A. baumannii, S. aureus, and E. faecium, or in brain heart infusion broth (BHI; Oxoid) for K. pneumoniae, P. aeruginosa, E. cloacae, and E. coli at 37 °C with shaking at 120 rpm for 18–24 h. Subsequently, bacteria were cultured to mid-logarithmic phase in the media described above at 37 °C with shaking at 120 rpm for 3 h. Bacteria were then washed twice with PBS and diluted to the required inoculum suspension concentration in Roswell Park Memorial Institute (RPMI)-1640 medium containing 20 mM HEPES and L-glutamine but without sodium bicarbonate (Sigma-Aldrich; hereafter referred to as RPMI), based on optical density at 620 nm. RPMI was selected because it supports bacterial growth without impairing AMP activity.
(§2) Bactericidal activity was assessed as described by de Breij et al.. Briefly, mid-logarithmic phase bacterial cultures were diluted to a final concentration of 1 × 10^7 colony-forming units (CFU)/mL in RPMI. Then, 10 µL was added to a final volume of 100 µL in RPMI (final concentration: 1 × 10^6 CFU/mL). Cultures were exposed to peptides either in RPMI or RPMI supplemented with 50% (v/v) human plasma (hereafter referred to as 50% plasma), obtained from four healthy volunteers after informed consent, frozen after collection, and pooled (Sanquin, Amsterdam, The Netherlands). Assays were performed in duplicate using round-bottom polypropylene microtiter plates (Costar, Arlington, VA, USA) and repeated three times. In the initial screening phase (Table 1, Table 2 and Table S1), peptide solutions of 1, 10, and 100 μM (final concentration) were tested against A. baumannii RUH875 and S. aureus JAR060131 in RPMI and in 50% plasma. After this selection process, two lead candidates, their RI variants, and reference peptides were tested with a final concentration range of 0.12 to 120 µM (two-fold dilutions) in RPMI and in 50% plasma (Table 3). The peptides were also tested against ESKAPE pathogens, with Synthetic Antimicrobial and Antibiofilm Peptide (SAAP)-148 as a reference peptide (Table 4).RPMI or 50% plasma served as no-treatment controls. After 2 and 18 h of incubation at 37 °C with shaking at 120 rpm in a humidified environment, the numbers of viable bacteria were quantified. Bactericidal activity was expressed as the lethal concentration 99.9% (LC99.9), defined as the lowest peptide concentration that killed ≥99.9% of bacteria within 2 h (LC99.9_2h) or 18 h (LC99.9_18h) compared to the initial inoculum.

S. aureus JAR060131 [2] = assay type: cell-based; conditions: for LC99.9 S. aureus JAR060131 50% Plasma 2 h / LC99.9 S. aureus JAR060131 RPMI 2 h: JAR060131, 2 h
Method: as §1, §2

[3] = system: BJ human skin fibroblast cells; assay: LDH leakage assay (membrane integrity); conditions: lowest concentration causing >30% LDH leakage; BJ fibroblasts; 24 h; DMEM with 2% FBS; 0.05-60 µM
Method: (§3) BJ human skin fibroblast cells (ATCC CRL-2522; RRID: CVCL_3653; LGC Standards, Germany (September 2023)) were cultured in Dulbecco’s Modified Eagle Medium (DMEM; Gibco, Waltham, MA, USA) supplemented with 10% (v/v) foetal bovine serum (FBS; Sigma-Aldrich) and 1% (v/v) penicillin/streptomycin (pen/strep; Gibco). Cell suspensions (5 × 10^5 cells/mL) were seeded into 96-well plates (100 μL/well; Thermo Scientific, Waltham, MA, USA) and allowed to adhere for 24 h. Monolayers were then exposed to two-fold serial dilutions of GDST peptides, their RI variants, and reference peptides (final concentrations: 0.05 to 60 µM) in fresh DMEM with 2% (v/v) FBS for 24 h at 37 °C in a humidified atmosphere with 5% CO2.
(§4) Cell viability and membrane integrity were assessed using the water-soluble tetrazolium salt (WST-1; Roche, Basel, Switzerland) assay and the lactate dehydrogenase (LDH; Abcam, Cambridge, UK) assay, respectively, according to manufacturer instructions. Results were expressed as percentages of metabolic activity and LDH leakage relative to untreated control cells and the positive lysis control, respectively. The cytotoxic concentration was defined as the lowest peptide concentration causing <70% metabolic activity and >30% LDH leakage. All experiments were performed in triplicate.

[4] = system: BJ human skin fibroblast cells; assay: WST-1 metabolic activity assay (cell viability); conditions: lowest concentration causing <70% metabolic activity (WST-1); BJ fibroblasts; 24 h; DMEM with 2% FBS; 0.05-60 µM
Method: as §3, §4

[5] = system: A. baumannii RUH875 biofilm; assay: Biofilm killing; assay type: cell-based, Acinetobacter baumannii; conditions: for Concentration achieving significant biofilm killing of A. baumannii: at any treatment time (2 h, 24 h), tested up to 120 µM; for A. baumannii biofilm killing, 24 h treatment (in words): up to 120 µM
Method: (§5) Mid-logarithmic phase cultures of A. baumannii RUH875 or S. aureus JAR060131 were diluted to 1 × 10^8 CFU/mL in RPMI supplemented with 1% glucose. A total of 100 μL of each suspension was added to flat-bottom polystyrene 96-well microplates (Costar) and incubated under static conditions at 37 °C in a humidified atmosphere for 24 h to allow biofilm formation. After 24 h, planktonic bacteria were removed, and wells were carefully washed with 100 μL PBS [60]. […] Control samples were exposed to 100 μL of PBS only.
(§6) Biofilms were treated at 37 °C for either 2 or 24 h. […] Plates were sealed and sonicated for 5 min (Elmasonic, Singen, Germany; 45 kHz) at room temperature to dislodge adherent bacteria. […] Quantitative cultures were performed by plating serial 10-fold dilutions on sheep blood agar, and results were expressed as log10 CFU per well. The lower limit of detection was three CFU. Each condition was tested in six replicates.

[6] = system: S. aureus JAR060131 biofilm; assay: Biofilm killing; assay type: cell-based, Staphylococcus aureus; conditions: for S. aureus biofilm killing, 24 h treatment (in words): up to 120 µM; for S. aureus biofilm killing, 24 h treatment (in words) / Concentration giving ≥3-log reduction of S. aureus biofilm CFU within 24 h: 24 h treatment; for Concentration giving ≥3-log reduction of S. aureus biofilm CFU within 24 h: >3 log for BP2 and pexiganan
Method: as §5, §6

A. baumannii RUH875 [7] = assay: microbe, parasite or virus in culture; assay type: cell-based, Acinetobacter baumannii; conditions: for MIC: Acinetobacter baumannii
Method: (§7) The potential for resistance development to GDST-038, GDST-045, and their RI variants was assessed as described by Habets and Brockhurst. Resistance development to the antibiotics rifampicin and ciprofloxacin (both from Sigma-Aldrich) was evaluated for comparison. Briefly, 10 μL of a mid-logarithmic phase culture of A. baumannii RUH875 or S. aureus JAR060131 was added to 90 μL of peptide (final concentrations: 0.23 to 120 μM) or antibiotic (final concentrations: 0.03 to 256 μg/mL) solution in RPMI, in 96-well polypropylene round-bottom plates (Costar). All incubations were performed in quadruplicate. Plates were sealed with breathable seals (Greiner) and incubated at 37 °C with shaking at 120 rpm in a humidified environment for 18 h (S. aureus) or 48 h (A. baumannii).
(§8) The minimum inhibitory concentration (MIC), defined as the lowest concentration that inhibited visible bacterial growth, was then determined. Subsequently, 2 μL from the 0.5-fold MIC condition was transferred to fresh medium containing a concentration series ranging from 0.5- to 8-fold the new MIC. This procedure was repeated over 22 consecutive passages to monitor resistance development.

S. aureus JAR060131 [8] = assay: microbe, parasite or virus in culture; assay type: cell-based, Staphylococcus aureus; conditions: Staphylococcus aureus
Method: as §7, §8

[9] = RPMI, 18 h, median of three independent experiments

Row | Compound | Cytotoxicity LDH Leakage >30% [3] [µM] | Cytotoxicity Metabolic Activity <70% [4] [µM] | Concentration achieving significant biofilm killing of A. baumannii [5] [µM] | S. aureus biofilm killing, 24 h treatment (in words) [6] | LC99.9 A. baumannii RUH875 50% Plasma 2 h (A. baumannii RUH875 [1]; RUH875, 2 h) [µM] | LC99.9 A. baumannii RUH875 RPMI 18 h (A. baumannii RUH875 [1]; RUH875, 18 h) [µM] | LC99.9 S. aureus JAR060131 50% Plasma 2 h (S. aureus JAR060131 [2]) [µM] | LC99.9 S. aureus JAR060131 RPMI 2 h (S. aureus JAR060131 [2]) [µM] | LC99.9 S. aureus JAR060131 RPMI 18 h (S. aureus JAR060131 [2]; JAR060131, 18 h) [µM] | A. baumannii biofilm killing, 24 h treatment (in words) [5] | Concentration giving ≥3-log reduction of S. aureus biofilm CFU within 24 h [6] [µM] | also measured
1 | CC[C@H](C)[C@H](NC(=O)[C@H](CCCCN)NC(=O)[C@H](CCC(=O)O)NC(=O)[C@H](CCCCN)NC(=O)[C@H](CO)NC(=O)[C@H](CCCCN)NC(=O)[C@H](CCCNC(=N)N)NC(=O)[C@H](Cc1ccccc1)NC(=O)[C@H](Cc1ccccc1)NC(=O)[C@H](CC(=O)O)NC(=O)CNC(=O)[C@H](CC(C)C)NC(=O)[C@@H](N)CC(C)C)C(=O)NCC(=O)N[C@@H](CCCCN)C(=O)N[C@@H](CCC(=O)O)C(=O)N[C@@H](Cc1ccccc1)C(=O)N[C@@H](CCCCN)C(=O)N[C@@H](CCCNC(=N)N)C(=O)N[C@H](C(=O)N[C@H](C(=O)N[C@@H](CCC(N)=O)C(=O)N[C@@H](CCCNC(=N)N)C(=O)N[C@H](C(=O)N[C@@H](CCCCN)C(=O)N[C@@H](CC(=O)O)C(=O)N[C@@H](Cc1ccccc1)C(=O)N[C@@H](CC(C)C)C(=O)N[C@@H](CCCNC(=N)N)C(=O)N[C@@H](CC(N)=O)C(=O)N[C@@H](CC(C)C)C(=O)N[C@H](C(=O)N1CCC[C@H]1C(=O)N[C@@H](CCCNC(=N)N)C(=O)N[C@H](C(=O)N[C@@H](CCC(=O)O)C(=O)N[C@@H](CO)C(=O)O)[C@@H](C)O)C(C)C)[C@@H](C)CC)C(C)C)[C@@H](C)CC [LL-37, reference compound] | 7.5 | 15 | > 120 | did not exhibit significant biofilm-killing effects |  |  |  |  |  |  |  | LC99.9 A. baumannii RUH875 50% Plasma 2 h (A. baumannii RUH875 [1]; 50% plasma, 2 h, median of three independent experiments): 60 µM; LC99.9 A. baumannii RUH875 50% Plasma 18 h (A. baumannii RUH875 [1]; 50% plasma, 18 h, median of three independent experiments): 60 µM; LC99.9 A. baumannii RUH875 RPMI 2 h (A. baumannii RUH875 [1]; RPMI, 2 h, two-fold dilutions 0.12-120 µM, median of three independent experiments): 1.88 µM; LC99.9 A. baumannii RUH875 RPMI 18 h (A. baumannii RUH875 [1]; [9]): 1.88 µM; LC99.9 S. aureus JAR060131 RPMI 18 h (S. aureus JAR060131 [2]; [9]): > 120 µM
2 | O=C(O)c1cn(C2CC2)c2cc(N3CCNCC3)c(F)cc2c1=O [ciprofloxacin, reference compound] |  |  |  |  |  |  |  |  |  |  |  | MIC (A. baumannii RUH875 [7]; RUH875, read-out: MIC A. baumannii after 22 passages): 64 µg/mL (≈ 193 µM); MIC (A. baumannii RUH875 [7]; RUH875, read-out: MIC A. baumannii before passaging): 0.5 µg/mL (≈ 1.51 µM); MIC increase in A. baumannii after 22 passages (A. baumannii RUH875 [7]; relative to first passage): 128 fold
3 | CO[C@H]1/C=C/O[C@@]2(C)Oc3c(C)c(O)c4c(O)c(c(/C=N/N5CCN(C)CC5)c(O)c4c3C2=O)NC(=O)/C(C)=C\C=C\[C@H](C)[C@H](O)[C@@H](C)[C@@H](O)[C@@H](C)[C@H](OC(C)=O)[C@@H]1C [rifampicin, reference compound] |  |  |  |  |  |  |  |  |  |  |  | MIC (S. aureus JAR060131 [8]; JAR060131, read-out: MIC S. aureus after 22 passages): 4100 µg/mL (≈ 4980 µM); MIC (S. aureus JAR060131 [8]; JAR060131, read-out: MIC S. aureus before passaging): 0.25 µg/mL (≈ 0.304 µM)
4 | GIGKFLKKAKKFGKAFVKILKK-NH2 (C-terminus assumed) [Pexiganan, reference compound] |  |  |  |  | 0.23 | 0.47 | 7.50 | 0.47 | 0.23 | not sustained after 24 h | ≥ 30 | Concentration killing ≥3 log CFU of A. baumannii biofilm within 2 h ([5]; 24 h biofilm, 2 h treatment in PBS, 1.88-120 μM, vs untreated biofilm): ≥ 30 µM
5 | GKWKLFKKAFKKFLKILAC [BP2, reference compound] | 1.88 | 0.47 |  |  |  |  |  |  |  | complete eradication | ≥ 30 | Concentration giving complete eradication of S. aureus biofilm within 24 h ([6]; 24 h biofilm, 24 h treatment in PBS): ≥ 60 µM
6 | LRAMCIKWWSGKHPK [TC84, reference compound] |  |  | > 120 | did not exhibit significant biofilm-killing effects | 3.75 | 3.75 | 7.5 | 7.5 | 7.5 |  |  | 
